Experimental data published in ChEMBL document CHEMBL6115023, “Design and biochemical evaluation of 2-cyclopropyl-thioureidobenzamide (CP-TBA) derivatives as potent HBV capsid assembly modulators targeting a novel binding site” (Eur J Med Chem, 2025).
Active and inactive are the calls of the source. The calls are words filed in the database; no cut-off is given here.

Columns and labels:
[1] = Cytotoxicity against human HepAD38 cells measured after 72 hrs by CCK-8 assay; assay type: toxicity, cell-based
[2] = Selectivity index, ratio of CC50 for human HepAD38 cells to IC50 for antiviral activity against HBV gene expressed in human HepAD38 cells assessed as inhibition of HBV DNA replication; assay type: toxicity, cell-based; settings: read-out: Selectivity Index
Hepatitis B virus [3] = experiment: Antiviral activity against HBV gene expressed in human HePAD38 cells assessed as inhibition of HBV DNA replication by quantitative PCR analysis; assay type: functional, organism-based
[4] = Metabolic stability in human liver microsomes assessed as intrinsic clearance measured per mg of microsomal protein upto 60 mins by LC-MS/MS analysis; assay type: ADME, Microsome; settings: read-out: CLH
[5] = Metabolic stability in human liver microsomes assessed as intrinsic clearance (liver) upto 60 mins by LC-MS/MS analysis; assay type: ADME, Microsome; settings: read-out: CLH
[6] = Stability in human plasma assessed as compound remaining measured after 30 mins by LC-MS/MS analysis; assay type: ADME, cell-free; settings: read-out: Stability
[7] = Stability in human plasma assessed as compound remaining measured after 60 mins by LC-MS/MS analysis; assay type: ADME, cell-free; settings: read-out: Stability
[8] = Stability in human plasma assessed as half life by LC-MS/MS analysis; assay type: ADME, cell-free
[9] = Stability in human plasma assessed as compound remaining measured after 10 mins by LC-MS/MS analysis; assay type: ADME, cell-free; settings: read-out: Stability
[10] = Metabolic stability in human liver microsomes assessed as half life by LC-MS/MS analysis; assay type: ADME, Microsome
[11] = Metabolic stability in human liver microsomes assessed as compound remaining after 60 mins in presence of NADPH by LC-MS/MS analysis; assay type: ADME, Microsome; settings: read-out: Stability
[12] = Cytotoxicity against human HLCZ01 cells assessed as cell viability measured after 72 hrs by CCK-8 assay; assay type: toxicity, cell-based
[13] = MRT (0 to infinity) in Sprague-Dawley rat at 20 mg/kg, po measured upto 24 hrs by LC-MS/MS analysis; assay type: ADME, organism-based; settings: in vivo
Hepatitis B virus [14] = experiment: In vivo antiviral activity against HBV infected male C57BL/6J mouse by hydrodynamic injection (HDI) of pAAV-HBV1.2 assessed as decrease in HBV DNA in serum at 5 mg/kg/day, po measured after 20 days by qPCR analysis; assay type: functional, organism-based; settings: time 20.0 day
[15] = Stability in human plasma assessed as compound remaining measured after 120 mins by LC-MS/MS analysis; assay type: ADME, cell-free; settings: read-out: Stability
[16] = AUC (0 to t) in Sprague-Dawley rat at 20 mg/kg, po measured upto 24 hrs by LC-MS/MS analysis; assay type: ADME, organism-based; settings: in vivo
[17] = MRT (0 to t) in Sprague-Dawley rat at 20 mg/kg, po measured upto 24 hrs by LC-MS/MS analysis; assay type: ADME, organism-based; settings: in vivo
[18] = MRT (0 to t) in Sprague-Dawley rat at 2 mg/kg, iv measured upto 24 hrs by LC-MS/MS analysis; assay type: ADME, organism-based; settings: in vivo
[19] = AUC (0 to t) in Sprague-Dawley rat at 2 mg/kg, iv measured upto 24 hrs by LC-MS/MS analysis; assay type: ADME, organism-based; settings: in vivo
[20] = Stability in human plasma assessed as compound remaining measured immediately by LC-MS/MS analysis; assay type: ADME, cell-free; settings: read-out: Stability
[21] = Lipophilic-hydrophilic partition coefficient logP of compound; assay type: physicochemical; settings: octanol/water
[22] = Cmax in Sprague-Dawley rat at 20 mg/kg, po measured upto 24 hrs by LC-MS/MS analysis; assay type: ADME, organism-based; settings: in vivo
[23] = AUC (0 to infinitive) in Sprague-Dawley rat at 2 mg/kg, iv measured upto 24 hrs by LC-MS/MS analysis; assay type: ADME, organism-based; settings: in vivo
[24] = Volume of distribution at steady state in Sprague-Dawley rat at 2 mg/kg, iv measured upto 24 hrs by LC-MS/MS analysis; assay type: ADME, organism-based; settings: in vivo, read-out: Vdss
[25] = Half life in Sprague-Dawley rat at 2 mg/kg, iv measured upto 24 hrs by LC-MS/MS analysis; assay type: ADME, organism-based; settings: in vivo
[26] = AUC (0 to infinity) in Sprague-Dawley rat at 20 mg/kg, po measured upto 24 hrs by LC-MS/MS analysis; assay type: ADME, organism-based; settings: in vivo
[27] = Half life in Sprague-Dawley rat at 20 mg/kg, po measured upto 24 hrs by LC-MS/MS analysis; assay type: ADME, organism-based; settings: in vivo
[28] = MRT (0 to infinity) in Sprague-Dawley rat at 2 mg/kg, iv measured upto 24 hrs by LC-MS/MS analysis; assay type: ADME, organism-based; settings: in vivo
[29] = Oral bioavailability in Sprague-Dawley rat at 2 mg/kg, iv measured upto 24 hrs by LC-MS/MS analysis; assay type: ADME, organism-based; settings: in vivo
[30] = Selectivity index, ratio of CC50 for human HLCZ01 cells to IC50 for antiviral activity against HBV infected in human HLCZ01 cells assessed as inhibition of HBV replication by measuring HBV DNA treated for 6 days by qPCR analysis; assay type: toxicity, cell-based; settings: time 6 day, read-out: Selectivity Index
[31] = Clearance in Sprague-Dawley rat at 2 mg/kg, iv measured upto 24 hrs by LC-MS/MS analysis; assay type: ADME, organism-based; settings: in vivo
Hepatitis B virus [32] = experiment: Antiviral activity against HBV infected in human HLCZ01 cells assessed as inhibition of HBV replication by measuring HBsAg treated for 6 days by ELISA; assay type: functional, organism-based; settings: time 6.0 day
[33] = Metabolic stability in human liver microsomes assessed as compound remaining after 60 mins in absence of NADPH (NCF) by LC-MS/MS analysis; assay type: ADME, Microsome; settings: read-out: Stability
[34] = Tmax in Sprague-Dawley rat at 20 mg/kg, po measured upto 24 hrs by LC-MS/MS analysis; assay type: ADME, organism-based; settings: in vivo
Hepatitis B virus [35] = experiment: Antiviral activity against HBV infected in human HLCZ01 cells assessed as inhibition of HBV replication by measuring HBV DNA treated for 6 days by qPCR analysis; assay type: functional, organism-based; settings: HLCZ01, 144 h

## O=C(Nc1cc(C(=O)Nc2cc(F)c(F)c(F)c2)c(C2CC2)cc1F)c1cccs1
[1]
  CC50 at 72 h: 20.9 µM
[2]
  selectivity ratio: 41.8
Hepatitis B virus [3]
  EC50: 0.5 µM

## COC(=O)/C=C/c1c(S(=O)(=O)N2CCOCC2)ccc(F)c1C(=O)Nc1cc(F)c(F)c(F)c1
[1]
  CC50 at 72 h: > 100 µM
Hepatitis B virus [3]
  EC50: > 4 µM

## CCOC(=O)C1=C(CN2CCOCC2)NC(c2nccs2)=N[C@H]1c1ccc(F)cc1Br
Hepatitis B virus [3]
  EC50: 0.022 µM

## C[C@]12CC[C@H]3[C@@H](CCC4=CC(=O)CC[C@@]43C)[C@@H]1CC[C@@H]2O [TESTOSTERONE]
[4]
  microsomal CLint: 74.5 µL/min/mg
[5]
  CLint scaled: 67 mL/min/kg

## O=C(Nc1cc(F)c(F)c(F)c1)c1cc(S(=O)(=O)NC2CCC(O)CC2)c(F)cc1-c1ccc2c(c1)OCO2 (stereo unspecified)
[1]
  CC50 at 72 h: 82.4 µM
[2]
  selectivity ratio: < 20.6
Hepatitis B virus [3]
  EC50: > 4 µM

## N#Cc1ccc(C(=O)Nc2cc(C(=O)Nc3cc(F)c(F)c(F)c3)c(C3CC3)cc2F)cc1
[1]
  CC50 at 72 h: 4.5 µM
[2]
  selectivity ratio: 10.7
Hepatitis B virus [3]
  EC50: 0.42 µM

## C=CCNC(=S)Nc1cc(C(=O)Nc2cc(F)c(F)c(F)c2)c(C2CC2)cc1F
[1]
  CC50 at 72 h: 16.7 µM
[2]
  selectivity ratio: 151
Hepatitis B virus [3]
  EC50: 0.11 µM

## CC(C)NC(=S)Nc1cc(C(=O)Nc2cc(F)c(F)c(F)c2)c(C2CC2)cc1F
[1]
  CC50 at 72 h: 16.8 µM
[2]
  selectivity ratio: 510
Hepatitis B virus [3]
  EC50: 0.033 µM

## O=C(Nc1cc(F)c(F)c(F)c1)c1cc(NC(=O)C2CC2)c(F)cc1C1CC1
[1]
  CC50 at 72 h: 88.2 µM
[2]
  selectivity ratio: 59.6
Hepatitis B virus [3]
  EC50: 1.48 µM

## CC(C)[N+](C)(CCOC(=O)C1c2ccccc2Oc2ccccc21)C(C)C.[Br-] [PROPANTHELINE BROMIDE]
[6]
  remaining at 0.5 h: 18.9%
[7]
  remaining at 1 h: 1.5%
[8]
  half-life: 0.162 h
[9]
  remaining at 10 min: 70.1%

## O=C(Nc1cc(F)c(F)c(F)c1)c1cc(NC(=S)NC2CC2)c(F)cc1C1CC1
[1]
  CC50 at 72 h: > 100 µM
[2]
  selectivity ratio: > 500
Hepatitis B virus [3]
  EC50: 0.2 µM

## O=C(Nc1cc(F)c(F)c(F)c1)c1cc(S(=O)(=O)NC2CCCC2)c(F)cc1-c1ccsc1
[1]
  CC50 at 72 h: 1.16 µM
[2]
  selectivity ratio: < 0.29
Hepatitis B virus [3]
  EC50: > 4 µM

## O=C(Nc1cc(F)c(F)c(F)c1)c1cc(S(=O)(=O)NC2CCC(O)CC2)c(F)cc1-c1ccsc1 (stereo unspecified)
[1]
  CC50 at 72 h: 82.4 µM
[2]
  selectivity ratio: < 20.6
Hepatitis B virus [3]
  EC50: > 4 µM

## O=C(/C=C/c1c(S(=O)(=O)N2CCOCC2)ccc(F)c1C(=O)Nc1cc(F)c(F)c(F)c1)OCCO
[1]
  CC50 at 72 h: > 100 µM
Hepatitis B virus [3]
  EC50: > 4 µM

## O=C(Nc1cc(F)c(F)c(F)c1)c1cc(S(=O)(=O)NC2CCCC2)c(F)cc1C1CC1
[1]
  CC50 at 72 h: 34 µM
[2]
  selectivity ratio: 52.3
Hepatitis B virus [3]
  EC50: 0.65 µM

## O=C(Nc1cc(F)c(F)c(F)c1)c1ccc(F)c(S(=O)(=O)N2CCC(O)CC2)c1
[2]
  selectivity ratio: 47.6

## O=C(O)Cc1ccccc1Nc1c(Cl)cccc1Cl [DICLOFENAC]
[4]
  microsomal CLint: 211 µL/min/mg
[5]
  CLint scaled: 190 mL/min/kg
[10]
  half-life: 0.11 h

## CCNC(=S)Nc1cc(C(=O)Nc2cc(F)c(F)c(F)c2)c(C2CC2)cc1F
[1]
  CC50 at 72 h: 21.2 µM
[2]
  selectivity ratio: 233
Hepatitis B virus [3]
  EC50: 0.091 µM

## CC(C)N(C)C(=S)Nc1cc(C(=O)Nc2cc(F)c(F)c(F)c2)c(C2CC2)cc1F
[11]
  remaining at 1 h: 3.2%
[1]
  CC50 at 72 h: > 100 µM
[12]
  CC50 at 72 h: 119 µM
[13]
  MRT inf: 4.42 h
Hepatitis B virus [14]
  Activity: Active
[6]
  remaining at 0.5 h: 91.6%
[4]
  microsomal CLint: 113 µL/min/mg
[15]
  remaining at 2 h: 82.3%
[16]
  AUC(0-t) at 24 h: 3440 ng·h/mL
[17]
  MRT last at 24 h: 4.35 h
[2]
  selectivity ratio: > 3030
[18]
  MRT last at 24 h: 1.09 h
[7]
  remaining at 1 h: 87.6%
[19]
  AUC(0-t) at 24 h: 1180 ng·h/mL
[20]
  remaining at 0 min: 100%
[21]
  logP: > 5
[22]
  Cmax: 748 ng/mL
[23]
  AUC(0-inf): 1200 ng·h/mL
[24]
  Vd: 2.1 L/kg
[25]
  half-life: 1.62 h
[26]
  AUC(0-inf): 3450 ng·h/mL
[27]
  half-life: 2.87 h
[28]
  MRT inf: 1.24 h
[8]
  half-life: > 4.82 h
[29]
  bioavailability: 28.9%
Hepatitis B virus [3]
  EC50: 0.033 µM
[5]
  CLint scaled: 102 mL/min/kg
[30]
  selectivity ratio at 144 h: 9920
[31]
  clearance: 28.2 mL/min/kg
Hepatitis B virus [32]
  Activity: Active
[33]
  remaining at 1 h: 99%
[10]
  half-life: 0.205 h
[34]
  Tmax: 0.67 h
Hepatitis B virus [35]
  EC50: 0.012 µM
[9]
  remaining at 10 min: 97.5%

## O=C(Nc1cc(F)c(F)c(F)c1)c1cc(NC(=O)C2CCCC2)c(F)cc1C1CC1
[1]
  CC50 at 72 h: > 100 µM
[2]
  selectivity ratio: > 208
Hepatitis B virus [3]
  EC50: 0.48 µM

## O=C(Nc1cc(F)c(F)c(F)c1)c1cc(S(=O)(=O)NC2CCCC2)c(F)cc1-c1cccs1
[1]
  CC50 at 72 h: 15 µM
[2]
  selectivity ratio: 3.75
Hepatitis B virus [3]
  EC50: 4 µM

## O=C(Nc1cc(F)c(F)c(F)c1)c1cc(NC(=S)NC2CCCC2)c(F)cc1C1CC1
[1]
  CC50 at 72 h: 4.66 µM
[2]
  selectivity ratio: 179
Hepatitis B virus [3]
  EC50: 0.026 µM

## CC(NC(=S)Nc1cc(C(=O)Nc2cc(F)c(F)c(F)c2)c(C2CC2)cc1F)C(F)(F)F (stereo unspecified)
[1]
  CC50 at 72 h: 3.86 µM
[2]
  selectivity ratio: 133
Hepatitis B virus [3]
  EC50: 0.029 µM

## O=C(Nc1cc(F)c(F)c(F)c1)c1cc(S(=O)(=O)NC2CCC(O)CC2)c(F)cc1-c1ccccc1 (stereo unspecified)
[1]
  CC50 at 72 h: 49.7 µM
[2]
  selectivity ratio: < 12.4
Hepatitis B virus [3]
  EC50: > 4 µM

## CC(C)NC(=O)/C=C/c1c(S(=O)(=O)N2CCOCC2)ccc(F)c1C(=O)Nc1cc(F)c(F)c(F)c1
[1]
  CC50 at 72 h: 24.2 µM
[2]
  selectivity ratio: < 6.04
Hepatitis B virus [3]
  EC50: > 4 µM
